Test results as given in patent US10501421B1, “Substituted benzimidazoles as modulators of Ras signaling” (VANDERBILT UNIVERSITY, priority 2017, dated 2019).
Counter-ions that a name gives are not always drawn. Values belong to the compound of their own block, whether it stands above or below them.

Legend:
[1] = molecular target: Ras GEF SOS (Son of Sevenless) (Homo sapiens, UniProt Q07889); test: SOS-mediated nucleotide exchange on Ras (BODIPY-GDP fluorescence); type: biochemical; details: SOS-mediated exchange of BODIPY-GDP for GTP on Ras
In short: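 Ras loaded with BODIPY-GDP was mixed in buffer with test compound, then GTP and SOS. Fluorescence change from labeled GDP/GTP exchange was followed over time, and rates came from single-exponential fits. EC50 came from a four-parameter fit of mean rate against compound concentration.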

Son of Sevenless (SOS) = molecular target: T1, Son of Sevenless (SOS) (Homo sapiens, UniProt Q07889); test: Binding to SOS, fluorescence polarization anisotropy (FPA) probe displacement; details: displacement of FITC-conjugated probe (Example 285), affinity calculated from IC50
T1 sequence (Q07889 564-1049 limits assumed): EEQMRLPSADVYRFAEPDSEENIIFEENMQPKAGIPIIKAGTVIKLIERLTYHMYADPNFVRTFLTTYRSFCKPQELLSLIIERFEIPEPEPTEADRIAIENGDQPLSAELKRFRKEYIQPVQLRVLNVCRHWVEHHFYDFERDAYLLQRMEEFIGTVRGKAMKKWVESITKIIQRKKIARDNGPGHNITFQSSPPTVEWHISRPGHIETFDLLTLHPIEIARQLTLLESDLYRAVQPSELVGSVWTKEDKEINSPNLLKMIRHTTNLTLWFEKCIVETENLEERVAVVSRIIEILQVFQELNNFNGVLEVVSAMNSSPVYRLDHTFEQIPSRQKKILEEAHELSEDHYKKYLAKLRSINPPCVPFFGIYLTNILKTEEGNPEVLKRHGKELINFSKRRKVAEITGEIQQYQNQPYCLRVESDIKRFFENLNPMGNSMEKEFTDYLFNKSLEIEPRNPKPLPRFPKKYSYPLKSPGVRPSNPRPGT
In short: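 A FITC-conjugated probe compound was incubated with SOS in buffer, and its displacement was tracked as a change in fluorescence anisotropy across a test-compound dose range. IC50 came from a four-parameter variable-slope fit, and binding affinity was calculated from it.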

Ras GEF SOS (Son of Sevenless), sequence (P01112 1-166 partner limits assumed, one chain of several): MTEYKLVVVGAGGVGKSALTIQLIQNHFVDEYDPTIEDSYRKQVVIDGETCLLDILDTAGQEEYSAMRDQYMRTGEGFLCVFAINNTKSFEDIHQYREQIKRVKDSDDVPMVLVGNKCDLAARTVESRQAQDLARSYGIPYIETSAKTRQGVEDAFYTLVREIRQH

Structure (SMILES): Cc1cc2c(nc(N3CCNCC3)n2Cc2ccc(Cl)cc2)c(-c2ccccc2)c1C [Example 105, 1-(4-chlorobenzyl)-5,6-dimethyl-4-phenyl-2-(piperazin-1-yl)-1H-benzo[d]imidazole trifluoroacetate]
- EC50 [1]: 1 to 5 µM
- Ki (Son of Sevenless (SOS)): > 5 µM

Structure (SMILES): CCc1cc(Cn2c(NCCN)nc3c(-c4ccccc4Cl)c(C)c(C)cc32)ccc1Cl [Example 112, N^1-(1-(4-chloro-3-ethylbenzyl)-4-(2-chlorophenyl)-5,6-dimethyl-1H-benzo[d]imidazol-2-yl)ethane-1,2-diamine trifluoroacetate]
- EC50 [1]: 5 to 30 µM
- Ki (Son of Sevenless (SOS)): 1 to 5 µM

Structure (SMILES): CCc1cc(Cn2c(NCCN)nc3c(-c4c(C)nn(C)c4C)c(C)c(C)cc32)ccc1Cl [Example 115, N^1-(1-(4-chloro-3-ethylbenzyl)-5,6-dimethyl-4-(1,3,5-trimethyl-1H-pyrazol-4-yl)-1H-benzo[d]imidazol-2-yl)ethane-1,2-diamine trifluoroacetate]
- EC50 [1]: 5 to 30 µM
- Ki (Son of Sevenless (SOS)): > 5 µM

Structure (SMILES): Cc1ccccc1-c1c(C)c(C)cc2c1nc(NCCN)n2Cc1cccc(C#N)c1 [Example 116, 3-((2-((2-aminoethyl)amino)-5,6-dimethyl-4-(o-tolyl)-1H-benzo[d]imidazol-1-yl)methyl)benzonitrile trifluoroacetate]
- EC50 [1]: 1 to 5 µM
- Ki (Son of Sevenless (SOS)): 1 to 5 µM

Structure (SMILES): Cc1cc(-c2c(C)nn(C)c2C)c2nc(N3CCNCC3)n(Cc3ccc(F)c(Cl)c3)c2c1 [Example 121, 1-(3-chloro-4-fluorobenzyl)-6-methyl-2-(piperazin-1-yl)-4-(1,3,5-trimethyl-1H-pyrazol-4-yl)-1H-benzo[d]imidazole trifluoroacetate]
- EC50 [1]: < 1 µM
- Ki (Son of Sevenless (SOS)): < 0.5 µM

Structure (SMILES): Cc1cc(Cn2c(N3CCNCC3)nc3c(-c4ccc(CN)cc4)cc(Cl)cc32)cc(C)c1F [Example 122, (4-(6-chloro-1-(4-fluoro-3,5-dimethylbenzyl)-2-(piperazin-1-yl)-1H-benzo[d]imidazol-4-yl)phenyl)methanamine trifluoroacetate]
- EC50 [1]: 1 to 5 µM
- Ki (Son of Sevenless (SOS)): 0.5 to 1 µM

Structure (SMILES): Cc1cc(Cn2c(N3CCNCC3)nc3c(C#Cc4ccccc4)cc(Cl)cc32)cc(C)c1F [Example 123, 6-chloro-1-(4-fluoro-3,5-dimethylbenzyl)-4-(phenylethynyl)-2-(piperazin-1-yl)-1H-benzo[d]imidazole trifluoroacetate]
- EC50 [1]: 1 to 5 µM
- Ki (Son of Sevenless (SOS)): 1 to 5 µM

Structure (SMILES): CN(CCO)Cc1cc(Cl)cc2c1nc(N1CCNCC1)n2Cc1ccc(F)c(Cl)c1 [Example 134, 2-(((6-chloro-1-(3-chloro-4-fluorobenzyl)-2-(piperazin-1-yl)-1H-benzo[d]imidazol-4-yl)methyl)(methyl)amino)ethan-1-ol trifluoroacetate]
- EC50 [1]: < 1 µM
- Ki (Son of Sevenless (SOS)): 0.5 to 1 µM

Structure (SMILES): CN(CCCO)Cc1cc(Cl)cc2c1nc(N1CCNCC1)n2Cc1ccc(F)c(Cl)c1 [Example 135, 3-(((6-chloro-1-(3-chloro-4-fluorobenzyl)-2-(piperazin-1-yl)-1H-benzo[d]imidazol-4-yl)methyl)(methyl)amino)propan-1-ol trifluoroacetate]
- EC50 [1]: < 1 µM
- Ki (Son of Sevenless (SOS)): 1 to 5 µM

Continued, values first:

- EC50 [1]: < 1 µM
- Ki (Son of Sevenless (SOS)): 1 to 5 µM
Structure (SMILES): CCN(CC)Cc1cc(Cl)cc2c1nc(N1CCNCC1)n2Cc1ccc(F)c(Cl)c1 [Example 136, N-((6-chloro-1-(3-chloro-4-fluorobenzyl)-2-(piperazin-1-yl)-1H-benzo[d]imidazol-4-yl)methyl)-N-ethylethanamine trifluoroacetate]

- EC50 [1]: 1 to 5 µM
- Ki (Son of Sevenless (SOS)): 1 to 5 µM
Structure (SMILES): NCCNCc1cc(Cl)cc2c1nc(N1CCNCC1)n2Cc1ccc(F)c(Cl)c1 [Example 137, N^1-((6-chloro-1-(3-chloro-4-fluorobenzyl)-2-(piperazin-1-yl)-1H-benzo[d]imidazol-4-yl)methyl)ethane-1,2-diamine trifluoroacetate]

- EC50 [1]: 30 to 100 µM
- Ki (Son of Sevenless (SOS)): > 5 µM
Structure (SMILES): Cc1cc(-c2ccccc2C)c2ncn(Cc3cc(C)c(F)c(C)c3)c2c1 [Example 142, 1-(4-fluoro-3,5-dimethylbenzyl)-6-methyl-4-(o-tolyl)-1H-benzo[d]imidazole]

- EC50 [1]: 5 to 30 µM
- Ki (Son of Sevenless (SOS)): > 5 µM
Structure (SMILES): Cc1cc(-c2ccccc2C)c2ncn(Cc3ccc(F)c(Cl)c3)c2c1 [Example 143, 1-(3-chloro-4-fluorobenzyl)-6-methyl-4-(o-tolyl)-1H-benzo[d]imidazole]

- EC50 [1]: 30 to 100 µM
- Ki (Son of Sevenless (SOS)): > 5 µM
Structure (SMILES): Cc1cc(CN(C)C)c2ncn(Cc3ccc(F)c(Cl)c3)c2c1 [Example 145, 1-(1-(3-chloro-4-fluorobenzyl)-6-methyl-1H-benzo[d]imidazol-4-yl)-N,N-dimethylmethanamine trifluoroacetate]

- EC50 [1]: < 1 µM
- Ki (Son of Sevenless (SOS)): 1 to 5 µM
Structure (SMILES): CCNCc1c(C)c(C)cc2c1nc(NCCN)n2Cc1ccc(F)c(Cl)c1 [Example 147, N^1-(1-(3-chloro-4-fluorobenzyl)-4-((ethylamino)methyl)-5,6-dimethyl-1H-benzo[d]imidazol-2-yl)ethane-1,2-diamine trifluoroacetate]

- EC50 [1]: 1 to 5 µM
- Ki (Son of Sevenless (SOS)): 0.5 to 1 µM
Structure (SMILES): CCCN1CC[C@@H](C(=O)c2ccccc2)[C@H]1c1cc(Cl)cc2c1nc(N1CCNCC1)n2Cc1cc(C)c(F)c(C)c1 [Example 148, ((2S,3R)-2-(6-chloro-1-(4-fluoro-3,5-dimethylbenzyl)-2-(piperazin-1-yl)-1H-benzo[d]imidazol-4-yl)-1-propylpyrrolidin-3-yl)(phenyl)methanone trifluoroacetate]

- EC50 [1]: 5 to 30 µM
- Ki (Son of Sevenless (SOS)): > 5 µM
Structure (SMILES): CC(C)CN1CC[C@@H](C(=O)c2ccccc2)[C@H]1c1cc(Cl)cc2c1nc(N1CCNCC1)n2Cc1ccc(F)c(Cl)c1 [Example 150, ((2S,3R)-2-(6-chloro-1-(3-chloro-4-fluorobenzyl)-2-(piperazin-1-yl)-1H-benzo[d]imidazol-4-yl)-1-isobutylpyrrolidin-3-yl)(phenyl)methanone trifluoroacetate]

- EC50 [1]: 5 to 30 µM
- Ki (Son of Sevenless (SOS)): > 5 µM
Structure (SMILES): CC(C)CN1CC[C@@H](C(=O)c2ccccc2)[C@@H]1c1cc(Cl)cc2c1nc(N1CCNCC1)n2Cc1ccc(F)c(Cl)c1 [Example 151, ((2R,3R)-2-(6-chloro-1-(3-chloro-4-fluorobenzyl)-2-(piperazin-1-yl)-1H-benzo[d]imidazol-4-yl)-1-isobutylpyrrolidin-3-yl)(phenyl)methanone trifluoroacetate]

- EC50 [1]: 5 to 30 µM
- Ki (Son of Sevenless (SOS)): > 5 µM
Structure (SMILES): CC(C)N1CC[C@@H](C(=O)c2ccccc2)[C@@H]1c1cc(Cl)cc2c1nc(N1CCNCC1)n2Cc1ccc(F)c(Cl)c1 [Example 153, ((2R,3R)-2-(6-chloro-1-(3-chloro-4-fluorobenzyl)-2-(piperazin-1-yl)-1H-benzo[d]imidazol-4-yl)-1-isopropylpyrrolidin-3-yl)(phenyl)methanone trifluoroacetate]

- EC50 [1]: 1 to 5 µM
- Ki (Son of Sevenless (SOS)): < 0.5 µM
Structure (SMILES): Cc1cc(Cn2c(NCCN)nc3c([C@@H](N)c4ccccc4)cc(Cl)cc32)cc(C)c1F [Example 160, (S)—N^1-(4-(amino(phenyl)methyl)-6-chloro-1-(4-fluoro-3,5-dimethylbenzyl)-1H-benzo[d]imidazol-2-yl)ethane-1,2-diamine trifluoroacetate]

- EC50 [1]: 1 to 5 µM
- Ki (Son of Sevenless (SOS)): 0.5 to 1 µM
Structure (SMILES): C=C[C@@H](N)c1cc(C)cc2c1nc(N1CCNCC1)n2Cc1cc(C)c(F)c(C)c1 [Example 163, (R)-1-(1-(4-fluoro-3,5-dimethylbenzyl)-6-methyl-2-(piperazin-1-yl)-1H-benzo[d]imidazol-4-yl)prop-2-en-1-amine trifluoroacetate]
